Results from ChEMBL document CHEMBL4477222, “Discovery of Novel Thiophene-Based, Thumb Pocket 2 Allosteric Inhibitors of the Hepatitis C NS5B Polymerase with Improved Potency and Physicochemical Profiles” (J Med Chem, 2016).
Values after ≈ are worked out from the molar mass of the structure shown. Active and inactive are the calls of the source. No cut-off for these calls is given here.

Columns and labels:
[1] = molecular target: RNA-directed RNA polymerase (Hepacivirus hominis, UniProt O39930, L419I); assay: Inhibition of HCV genotype 1a NS5B L419I mutant; design: species or system Hepatitis C virus subtype 1a
[2] = Metabolic stability in human hepatocytes assessed as compound remaining at 10 uM after 2 hrs; assay type: ADME, cell-based, Hepatocyte; conditions: read-out: Stability
[3] = AUC (0 to infinity) in monkey at 1 mg/kg, iv through bolus administration; assay type: ADME, organism-based, Macaca mulatta; design: dose 1 mg/kg, route intravenous, time infinity; conditions: rhesus monkey, in vivo
[4] = Ratio of drug level in liver to lungs in Sprague-Dawley rat at 10 mg/kg, po; assay type: ADME, organism-based, Liver/Lung; conditions: in vivo
[5] = Cmax in Sprague-Dawley rat at 3 mg/kg, po; assay type: ADME, organism-based; design: dose 3 mg/kg, route oral; conditions: in vivo
[6] = tested on: Nonstructural protein 5A (Hepatitis C virus), Q5L478 [UNDEFINED MUTATION]; assay: Inhibition of BMS-790052-resistant HCV genotype 1a NS5A Q30R mutant; conditions: Hepatitis C virus subtype 1a
[7] = AUC (0 to infinity) in Fischer 344 rat at 1 mg/kg, iv through bolus administration; assay type: ADME, organism-based; design: dose 1 mg/kg, time infinity, route intravenous; conditions: in vivo
[8] = Drug level in rat plasma; assay type: ADME, cell-free
[9] = Volume of distribution in steady state in Fischer 344 rat at 1 mg/kg, iv through bolus administration; assay type: ADME, organism-based; conditions: in vivo, read-out: Vdss
[10] = molecular target: CYP450 (family, isoform not stated) (Homo sapiens, UniProt P04798+P05177+P05181+P08684+P10632+P10635+P11509+P11712+P13584+P20813+P20815+P20853+P24462+P24903+P33260+P33261+P51589+P78329+P98187+Q02928+Q08477+Q16678+Q16696+Q5TCH4+Q6VVX0+Q7Z449+Q8TAV3+Q96SQ9+Q9HB55); assay: Inhibition of CYP450 (unknown origin); assay type: ADME, protein assay
[11] = Metabolic stability in human liver microsomal S9 fraction assessed as compound remaining at 1 uM after 2 hrs in presence of NADPH/UDPGA; assay type: ADME, subcellular; conditions: read-out: Stability
[12] = AUC (0 to infinity) in Fischer 344 rat at 3 mg/kg, po; assay type: ADME, organism-based; design: dose 3 mg/kg, route oral, time infinity; conditions: in vivo
[13] = Volume of distribution in steady state in monkey at 1 mg/kg, iv through bolus administration; assay type: ADME, organism-based, Macaca mulatta; conditions: rhesus monkey, in vivo, read-out: Vdss
[14] = Metabolic stability in dog liver microsomal S9 fraction assessed as compound remaining at 1 uM after 2 hrs in presence of NADPH/UDPGA; assay type: ADME, subcellular, Canis lupus familiaris; conditions: read-out: Stability
[15] = molecular target: DNA polymerase beta (Homo sapiens) (UniProt P06746); assay: Inhibition of human DNA polymerase-beta by fluorescence/radiometric assay
[16] = tested on: Nonstructural protein 5A (Hepatitis C virus), Q5L478 [Y93C]; assay: Inhibition of BMS-790052-resistant HCV genotype 1a NS5A Y93C mutant; conditions: Hepatitis C virus subtype 1a
[17] = Ratio of drug level in liver to kidney in Sprague-Dawley rat at 10 mg/kg, po; assay type: ADME, organism-based; conditions: in vivo
[18] = Drug uptake in Sprague-Dawley rat plasma at 10 mg/kg, po administered as single dose; assay type: ADME, organism-based; conditions: in vivo
Hepatocyte [19] = assay: Change in CYP3A4 mRNA levels in hepatocytes (unknown origin); assay type: ADME, cell-based
[20] = Half life in dog at 3 mg/kg, po; assay type: ADME, organism-based, Canis lupus familiaris; conditions: in vivo
[21] = tested on: NS3 protease (Hepacivirus C), C1KIQ2 [V36M]; assay: Inhibition of telaprevir-resistant HCV NS3 protease V36M mutant; conditions: Hepacivirus hominis
[22] = tested on: NS3 protease (Hepacivirus C), C1KIQ2 [R155T]; assay: Inhibition of telaprevir-resistant HCV NS3 protease R155T mutant; conditions: Hepacivirus hominis
[23] = Half life in Sprague-Dawley rat at 1 mg/kg, iv through bolus administration; assay type: ADME, organism-based; conditions: in vivo
[24] = molecular target: RNA-directed RNA polymerase (Hepacivirus hominis, UniProt O39930, M423V); assay: Inhibition of HCV genotype 1a NS5B M423V mutant; design: species or system Hepatitis C virus subtype 1a
[25] = tested on: Nonstructural protein 5A (Hepatitis C virus), Q5L478 [UNDEFINED MUTATION]; assay: Inhibition of BMS-790052-resistant HCV genotype 1a NS5A M28T mutant; conditions: Hepatitis C virus subtype 1a
[26] = Permeability from basolateral to apical side in human Caco2 cells; assay type: ADME, cell-based; conditions: Caco-2, read-out: permeability
[27] = Volume of distribution in steady state in dog at 1 mg/kg, iv through bolus administration; assay type: ADME, organism-based, Canis lupus familiaris; conditions: in vivo, read-out: Vdss
[28] = Drug uptake in Sprague-Dawley rat liver at 10 mg/kg, po administered as single dose; assay type: ADME, organism-based; conditions: in vivo
[29] = Efflux ratio of permeability from basolateral to apical side over apical to basolateral side in human Caco2 cells; assay type: ADME, cell-based; conditions: Caco-2
[30] = tested on: Nonstructural protein 5A (Hepatitis C virus), Q5L478 [UNDEFINED MUTATION]; assay: Inhibition of BMS-790052-resistant HCV genotype 1b NS5A L31V mutant; conditions: Hepatitis C virus subtype 1b
[31] = tested on: Nonstructural protein 5A (Hepatitis C virus), Q5L478 [UNDEFINED MUTATION]; assay: Inhibition of BMS-790052-resistant HCV genotype 1a NS5A Y93N mutant; conditions: Hepatitis C virus subtype 1a
Cytochrome P450 1A2 = Cytochrome P450 1A2 (Homo sapiens, UniProt P05177); assay: Induction of CYP1A2 (unknown origin) in hepatocytes; assay type: ADME, cell-based
Sequence of Cytochrome P450 1A2 (P05177 whole entry): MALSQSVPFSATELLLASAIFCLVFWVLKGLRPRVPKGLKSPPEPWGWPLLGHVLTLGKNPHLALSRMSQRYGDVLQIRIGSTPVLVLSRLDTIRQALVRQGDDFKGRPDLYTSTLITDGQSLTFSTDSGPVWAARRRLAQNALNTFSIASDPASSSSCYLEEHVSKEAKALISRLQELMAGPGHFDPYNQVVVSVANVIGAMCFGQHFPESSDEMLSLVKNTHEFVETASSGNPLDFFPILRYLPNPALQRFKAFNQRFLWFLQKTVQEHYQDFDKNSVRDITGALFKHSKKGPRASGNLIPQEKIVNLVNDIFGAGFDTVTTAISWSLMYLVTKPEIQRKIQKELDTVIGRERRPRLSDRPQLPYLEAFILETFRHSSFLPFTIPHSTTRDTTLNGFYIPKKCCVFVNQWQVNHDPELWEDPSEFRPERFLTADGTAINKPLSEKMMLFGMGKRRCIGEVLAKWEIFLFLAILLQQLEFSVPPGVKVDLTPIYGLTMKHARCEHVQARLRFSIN

[32] = Metabolic stability in monkey hepatocytes assessed as compound remaining at 10 uM after 2 hrs; assay type: ADME, cell-based, Macaca mulatta, Hepatocyte; conditions: rhesus monkey, read-out: Stability
[33] = tested on: Nonstructural protein 5A (Hepatitis C virus), Q5L478 [UNDEFINED MUTATION]; assay: Inhibition of BMS-790052-resistant HCV genotype 1a NS5A L31V mutant; conditions: Hepatitis C virus subtype 1a
[34] = Solubility of the compound in FeSSIF at pH 5.2; assay type: physicochemical
[35] = tested on: Nonstructural protein 5A (Hepatitis C virus), Q5L478 [UNDEFINED MUTATION]; assay: Inhibition of BMS-790052-resistant HCV genotype 1a NS5A Q30H mutant; conditions: Hepatitis C virus subtype 1a
[36] = molecular target: Nonstructural protein 5A (Hepatitis C virus) (UniProt Q5L478); assay: Ratio of EC50 for HCV genotype 1b NS5A infected in human l389lucubi- neo/NS3-375.1-containing Huh7ET cells in presence of 40% human serum to EC50 for HCV genotype 1b NS5A infected in human l389lucubi- neo/NS3-375.1-containing Huh7ET cells; conditions: Hepatitis C virus subtype 1b
[37] = Metabolic stability in dog liver microsomal S9 fraction assessed as compound remaining at 1 uM after 2 hrs in presence of NADPH; assay type: ADME, subcellular, Canis lupus familiaris; conditions: read-out: Stability
[38] = Volume of distribution at steady state in Sprague-Dawley rat at 1 mg/kg, iv through bolus administration; assay type: ADME, organism-based; conditions: in vivo, read-out: Vdss
[39] = Protein binding in monkey liver at 1 uM; assay type: ADME, tissue-based, Macaca mulatta; conditions: rhesus monkey, read-out: PB (converted)
[40] = tested on: NS3 protease (Hepatitis C virus subtype 1b), Q0ZMF1 [A156S]; assay: Inhibition of telaprevir-resistant HCV NS3 protease A156S mutant; conditions: Hepacivirus hominis
Hepatocyte [41] = assay: Change in CYP1A2 mRNA levels in hepatocytes (unknown origin); assay type: ADME, cell-based
[42] = Protein binding in human liver at 1 uM; assay type: ADME, tissue-based; conditions: read-out: PB (converted)
[43] = Cmax in dog at 3 mg/kg, po; assay type: ADME, organism-based, Canis lupus familiaris; design: dose 3 mg/kg, route oral; conditions: in vivo
[44] = Cytotoxicity against human W11.8 cells assessed as reduction in cell viability after 4 days; assay type: cell-based
[45] = molecular target: RNA-directed RNA polymerase (Hepacivirus hominis, UniProt O39930, M423T); assay: Inhibition of HCV genotype 1a NS5B M423T mutant; design: species or system Hepatitis C virus subtype 1a
[46] = tested on: NS3 (Hepatitis C virus), A3EZJ3 [R155K,V36M]; assay: Inhibition of telaprevir-resistant HCV NS3 protease V36M/R155K double mutant; conditions: Hepacivirus hominis
[47] = Drug excretion in rat bile; assay type: ADME, tissue-based; conditions: in vivo

## CC(C)(C)C#Cc1cc(N(CC(=O)N2CCOCC2)C(=O)[C@H]2CC[C@H](C)CC2)c(C(=O)O)s1
[1]
  EC50: 400 nM
[2]
  remaining at 2 h, 10 µM: 77%
[3]
  AUC(0-inf): 1730 ng·h/mL
[4]
  Ratio: 10
[5]
  Cmax: 1730 ng/mL
[6]
  inhibition: Active
[7]
  AUC(0-inf): 1580 ng·h/mL
[8]
  Drug uptake: Active
[9]
  Vd: 0.86 L/kg
[10]
  IC50: > 40000 nM
[11]
  remaining at 2 h, 1 µM: 73%
[12]
  AUC(0-inf): 310 ng·h/mL
[13]
  Vd: 0.23 L/kg
[14]
  remaining at 2 h, 1 µM: 82%
[15]
  inhibition: inactive
[16]
  inhibition: Active
[17]
  Ratio: 10
[18]
  Drug uptake: Active
Hepatocyte [19]
  Activity: Non-Toxic
[20]
  half-life: 6.6 h
[21]
  inhibition: Active
[22]
  inhibition: Active
[23]
  half-life: 2.35 h
[24]
  EC50: 120 nM
[25]
  inhibition: Active
[26]
  Papp B→A: 9.8 ×10⁻⁶ cm/s
[27]
  Vd: 1.57 L/kg
[28]
  Drug uptake: Active
[29]
  efflux ratio: 14
[30]
  inhibition: Active
[31]
  inhibition: Active
Cytochrome P450 1A2
  Activity: Not Active
[32]
  remaining at 2 h, 10 µM: 30%
[33]
  inhibition: Active
[34]
  solubility: 800 µg/mL (≈ 1690 µM)
[35]
  inhibition: Active
[36]
  Ratio EC50: 10 to 20
[37]
  remaining at 2 h, 1 µM: 82%
[38]
  Vd: 1.55 L/kg
[39]
  fraction unbound at 1 µM: 0.093
[40]
  inhibition: Active
Hepatocyte [41]
  Activity: Non-Toxic
[42]
  fraction unbound at 1 µM: 0.153
[43]
  Cmax: 1550 ng/mL
[44]
  CC50 at 96 h: > 20000 nM
[45]
  EC50: 280 nM
[46]
  inhibition: Active
[47]
  Drug excretion: Metabolite_Detected
